Data taken from US10508114B2, “Spiro-isoquinoline-4,4′-piperidine compounds having multimodal activity against pain” (ESTEVE PHARMACEUTICALS, S.A., priority 2015, dated 2019).
pKi: −log10 of the molar value.

Tested on: human σ1 receptor and human μ-opioid receptor
Assay: Human σ1 receptor and human μ-opioid receptor radioligand binding assays, reported on one dual scale
Set-up: key to μ and σ1 dual (binding expressed as Ki): +: Both Ki-μ and Ki-σ1>500 nM; ++: One Ki<500 nM while the other Ki is >=500 nM; +++: Both Ki-μ and Ki-σ1<500 nM; ++++: Both Ki-μ and Ki-σ1<100 nM
Conditions: combined class for both receptors, [3H](+)-pentazocine on transfected HEK-293 membranes (σ1), [3H]-DAMGO on transfected CHO-K1 membranes (μ); for pKi: read-out: μ and σ1 dual (binding expressed as Ki)
Procedure: Human σ1 Receptor Radioligand Assay
To investigate binding properties of test compounds to human σ1 receptor, transfected HEK-293 membranes and [^3H](+)-pentazocine (Perkin Elmer, NET-1056), as the radioligand, were used. The assay was carried out with 7 μg of membrane suspension, 5 nM of [^3H](+)-pentazocine in either absence or presence of either buffer or 10 μM Haloperidol for total and non-specific binding, respectively. Binding buffer contained Tris-HCl 50 mM at pH 8. Plates were incubated at 37° C. for 120 minutes. After the incubation period, the reaction mix was then transferred to MultiScreen HTS, FC plates (Millipore), filtered and plates were washed 3 times with ice-cold 10 mM Tris-HCL (pH7.4). Filters were dried and counted at approximately 40% efficiency in a MicroBeta scintillation counter (Perkin-Elmer) using EcoScint liquid scintillation cocktail
Human μ-Opioid Receptor Radioligand Assay
To investigate binding properties of test compounds to human μ-opioid receptor, transfected CHO-K1 cell membranes and [^3H]-DAMGO (Perkin Elmer, ES-542-C), as the radioligand, were used. The assay was carried out with 20 μg of membrane suspension, 1 nM of [^3H]-DAMGO in either absence or presence of either buffer or 10 μM Naloxone for total and non-specific binding, respectively. Binding buffer contained Tris-HCl 50 mM, MgCl2 5 mM at pH 7.4. Plates were incubated at 27° C. for 60 minutes. After the incubation period, the reaction mix was then transferred to MultiScreen HTS, FC plates (Millipore), filtered and plates were washed 3 times with ice-cold 10 mM Tris-HCL (pH 7.4). Filters were dried and counted at approximately 40% efficiency in a MicroBeta scintillation counter (Perkin-Elmer) using EcoScint liquid scintillation cocktail.

SMILES | μ and σ1 dual (binding expressed as Ki) | pKi
CCN1CC2(CCN(Cc3ccccc3)CC2)c2ccccc2C1=O [Example 3, 1′-Benzyl-2-ethyl-2,3-dihydro-1H-spiro[isoquinoline-4,4′-piperidin]-1-one] | ++ | 
O=C1NCC2(CCN(Cc3ccccc3)CC2)c2ccccc21 [Example 1, 1′-Benzyl-2,3-dihydro-1H-spiro[isoquinoline-4,4′-piperidin]-1-one] | ++ | 
CCN1CC2(CCN(CCc3ccccc3)CC2)c2ccccc2C1=O [Example 6, 2-ethyl-1′-phenethyl-2,3-dihydro-1H-spiro[isoquinoline-4,4′-piperidin]-1-one] |  | > 6.30
c1ccc(CCN2CCC3(CC2)CNCc2ccccc23)cc1 [Example 8, 1′-Phenethyl-2,3-dihydro-1H-spiro[isoquinoline-4,4′-piperidine]] |  | > 6.30
O=C1NCC2(CCN(CCc3ccccc3)CC2)c2ccccc21 [Example 4, 1′-Phenethyl-2,3-dihydro-1H-spiro[isoquinoline-4,4′-piperidin]-1-one] |  | > 6.30
CN1Cc2ccccc2C2(CCN(CCc3ccccc3)CC2)C1 [Example 9, 2-Methyl-1′-phenethyl-2,3-dihydro-1H-spiro[isoquinoline-4,4′-piperidine]] |  | > 6.30
CN1CC2(CCN(Cc3ccccc3)CC2)c2ccccc2C1=O [Example 2, 1′-Benzyl-2-methyl-2,3-dihydro-1H-spiro[isoquinoline-4,4′-piperidin]-1-one] | ++ | 
CN1CC2(CCN(CCc3ccccc3)CC2)c2ccccc2C1=O [Example 5, 2-Methyl-1′-phenethyl-2,3-dihydro-1H-spiro[isoquinoline-4,4′-piperidin]-1-one] |  | > 6.30
CC(=O)N1Cc2ccccc2C2(CCN(CCc3ccccc3)CC2)C1 [Example 10, 1-(1′-Phenethyl-1H-spiro[isoquinoline-4,4′-piperidine]-2(3H)-yl)ethanone] | ++ | 
O=C1c2ccccc2C2(CCN(CCc3ccccc3)CC2)CN1CCO [Example 11, 2-(2-Hydroxyethyl)-1′-phenethyl-2,3-dihydro-1H-spiro[isoquinoline-4,4′-piperidin]-1-one] | ++ | 
O=C1c2ccccc2C2(CCN(Cc3ccccc3)CC2)CN1CCO [Example 7, 1′-Benzyl-2-(2-hydroxyethyl)-2,3-dihydro-1H-spiro[isoquinoline-4,4′-piperidin]-1-one] | ++ | 
